Data taken from publication PMC3539823 (Journal of medicinal chemistry, 2012).

Tests used:
GLS = molecular target: T1, GLS (Homo sapiens, UniProt O94925); conditions: previously reported; cited from earlier work
T1 sequence (O94925 124-669 limits assumed): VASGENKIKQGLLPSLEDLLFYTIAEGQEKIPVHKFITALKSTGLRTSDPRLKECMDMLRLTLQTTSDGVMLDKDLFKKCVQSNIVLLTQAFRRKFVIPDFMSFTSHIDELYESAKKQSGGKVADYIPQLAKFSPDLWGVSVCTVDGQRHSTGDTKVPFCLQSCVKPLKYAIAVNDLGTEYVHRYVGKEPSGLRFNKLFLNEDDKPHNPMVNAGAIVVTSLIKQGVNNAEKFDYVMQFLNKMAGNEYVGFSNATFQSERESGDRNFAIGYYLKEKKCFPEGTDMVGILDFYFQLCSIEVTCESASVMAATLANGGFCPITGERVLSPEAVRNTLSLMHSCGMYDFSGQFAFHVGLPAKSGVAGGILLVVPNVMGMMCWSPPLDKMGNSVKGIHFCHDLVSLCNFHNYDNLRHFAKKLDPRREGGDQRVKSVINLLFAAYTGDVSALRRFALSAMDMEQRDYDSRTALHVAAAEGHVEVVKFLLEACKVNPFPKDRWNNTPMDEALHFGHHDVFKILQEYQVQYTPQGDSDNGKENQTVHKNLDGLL

[1] = tested on: P493 human lymphoma B cells; test: P493 cell proliferation assay; type: cell-based; conditions: P493-6, read-out: IC50 (growth of P493 cells)
[2] = mouse liver microsomes, phase I

| Compound | fold increase in IC50 value from 3 to 5 (GLS) [fold] | IC50 [1] [µM] | stability against microsomes in the presence of NADPH [2] |
| --- | --- | --- | --- |
| Nc1nnc(CCSCCc2nnc(N)s2)s1 [Compound 5, Bis-[2-(5-Amino-[1,3,4]thiadiazol-2-yl)-ethylsulfide]] | 50 |  |  |
| O=C(CCCCc1nnc(NC(=O)Cc2ccccc2)s1)NCCN1CCCC1 [Compound 29a, 5-(5-(2-phenylacetamido)-1,3,4-thiadiazol-2-yl)-N-(2-(pyrrolidin-1-yl)ethyl)pentanamide] |  | ~40 | completely stable |
| Nc1nnc(CCCCc2nnc(NC(=O)Cc3ccccc3)s2)s1 [Compound 11b, N-(5-(4-(5-amino-1,3,4-thiadiazol-2-yl)butyl)-1,3,4-thiadiazol-2-yl)-2-phenylacetamide] |  |  | completely stable |
